Results on 19 compounds are retold here after US20230150951A1, “2,5- OR 2,6-DISUBSTITUTED HYDROQUINONE DERIVATIVES WITH AT LEAST ONE CARBOXY, SULFO OR AMIDO GROUP USEFUL AS MEDICAMENTS” (OM PHARMA SA, priority 2020, published 2023).

The structures appear in SMILES notation. pIC50: −log10 of the molar value. Where two headings read alike, the source gives them in different places. A value given as a limit tells only on which side of the number the result lay.

What all share (type): cell-based
The target in assay [1] is T1, FGF-1 (Homo sapiens, UniProt P05230).
T1 construct: purchased Peprotech 100-17A
T1 sequence (P05230 whole entry): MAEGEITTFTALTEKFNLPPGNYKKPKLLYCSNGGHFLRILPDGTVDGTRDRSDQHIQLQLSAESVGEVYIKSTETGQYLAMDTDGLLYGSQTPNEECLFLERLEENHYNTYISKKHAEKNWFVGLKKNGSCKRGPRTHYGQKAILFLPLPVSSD
Description: FGF-1 induced sprouting of HUVEC, spheroid-based cellular angiogenesis assay. The note with it: FGF-1 25 ng/mL preincubated with compound, 24 h. An outline of the steps: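 Spheroids of 400 HUVEC (passage 3–4), embedded in collagen gel, were stimulated with FGF-1, FGF-2 or VEGF-A (final 25 ng/mL) preincubated 30 min at 37°C with compound (final 1.56–100 μM).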

In assay [2] the test system is IL-4. Description: Cytokine release after LPS induction on human whole blood: IL-4. How it is done:
(§1) Aim of this in vitro method is to assess compounds effects on release of a panel of cytokines from whole blood following lipopolysaccharide (LPS) induced inflammatory reaction. Whole blood was incubated with compounds for 1 h prior to LPS induction. Cytokine levels in blood were measured using a multiplex FACS-based panel.
(§2) IC50 values determined for the tested compounds expressed in microM [μM] and the values for the inhibition of cytokines were listed for each compound.
(§3) Effect on cytokines release after LPS induction was performed on the compounds dissolved in DMSO or H2O to reach 10-fold concentrated stock solutions and dissolved in culture media.
(§4) Test system: Whole blood was removed from a single donor (into lithium heparin coated tubes; BD Vacutainer; 367886) and diluted 1:5 with RPMI 1640 (Thermo Fisher, 61870036). Within 30 minutes of sampling, blood was incubated with compounds for 1 h prior to LPS stimulation (O111:B4—Sigma L4391; 10 ng/ml final concentration). Stimulation continued under standard cell culture conditions (37° C. with 5% CO2) overnight (18 h), after which plates were centrifuged and supernatant removed and frozen at −80° C. until used for analyses.
(§5) Dilution of test compounds: 10×concentrated solutions (concerning to the final assay concentrations) of each test compound were prepared with the appropriate solvent (in DMSO or in water). These 10× compound solutions (10 μl) were then added to 90 μl pre-diluted whole blood (whole blood: RPMI1640, 1:5) resulting in the final assay concentration.
(§6) Test method: Diluted whole blood (80 μl) was pre-incubated with compounds (10 μl) to give final assay concentrations of 100, 30, 10, 3, 1, 0.3 and 0.1×10^−6M. Blood was incubated at 37° C. with 5% CO2 for 1 h. LPS was diluted in cell culture media to a concentration of […]; 10 μl was added to the whole blood to give a final concentration of 10 ng/ml. Plates were incubated at 37° C. for 18 h. Plates were centrifuged at 3,000 RPM for 5 minutes at 4° C. and supernatant removed and frozen at −80° C. until FACS analysis was carried out.
(§7) Cytokine release was measured using a custom multiplex system (ELISA Genie) according to manufacturers instructions. Prepared samples were run on an Attune NxT flow cytometer (Thermo Fisher).
(§8) Quantification of cytokine release inhibition: known concentration standards were run as part of the cytokine panel to allow quantification of each cytokine concentration in each sample. This was carried out using FCAP Array v3.0 software.
(§9) Results: The dose response relationship on cytokine release following LPS induction of inflammatory response in whole blood was assessed for all compounds. IC50 values were determined for each compound for a panel of cytokines (GM-CSF, IFN-gamma, IL-1beta, IL-2, IL-4, IL-5, IL-6, IL-8, IL-9, IL-10, IL-12p40, IL-13, IL-17A, IL-17F, IL-18, IL-21, IL-22, IL-33, TGF-beta, TNF-alpha, TNF-beta).

For assay [3], the system named is IL-10. Description: Cytokine release after LPS induction on human whole blood: IL-10. How it is done:
as §1, §2, §3, §4, §5, §6, §7, §8, §9

The mark [4] stands for this setting: Homo sapiens, LPS 10 ng/ml, 18 h, read-out: Whole Blood: IL-4 IC50.
[5] abbreviates: human whole blood, inhibition of LPS induced inflammation, read-out: IC50 IL-4.
[6] abbreviates: Homo sapiens, LPS 10 ng/ml, 18 h, read-out: Whole Blood: IL-10 IC50.
The mark [7] stands for this setting: human whole blood, inhibition of LPS induced inflammation, read-out: IC50 IL-10.

A word on the pIC50: it is the negative decadic logarithm of the IC50, by convention in mol/L. `O=C(O)c1cc(NC(=O)c2cc(O)c(C(=O)O)cc2O)cc(NC(=O)c2cc(O)c(C(=O)O)cc2O)c1` [Ib-010a, 3,5-bis(2,5-dihydroxy-4-carboxybenzoylamino)benzoic acid]: the pIC50 in assay [1] is 4.85; in assay [2] (setting [4]), less than 4.00; in assay [2] (setting [5]), 4.00; in assay [3] (setting [6]), less than 4.00; in assay [3] (setting [7]) it was 4.00.

For the compound `CC(=O)N(Cc1cc(O)c(C(=O)O)cc1O)Cc1cc(O)c(C(=O)O)cc1O` [IIIc-057a, N,N-Bis(4-carboxy-2,5-dihydroxyphenylmethyl)acetamide], the pIC50 in assay [1] was 4.06; in assay [2] (setting [4]), less than 4.00; in assay [2] (setting [5]), 4.00; in assay [3] (setting [6]), less than 4.00; in assay [3] (setting [7]) it was 4.00.

Turning to `O=C(Nc1ccccc1-c1nnn[nH]1)c1cc(O)c(C(=O)Nc2ccccc2-c2nnn[nH]2)cc1O` [Ic-001aTz2, N1,N4-bis(2-(1H-tetrazol-5-yl)phenyl)-2,5-dihydroxyterephthalamide], the pIC50 in assay [1] is not above 3.70; in assay [2] (setting [4]), less than 4.00; in assay [3] (setting [6]), less than 4.00.

Take `O=C(O)c1cc(O)cc(CSCc2cc(O)cc(C(=O)O)c2O)c1O` [IVc-058a, 3-((2,5-Dihydroxy-3-carboxyphenyl)methylthiomethyl)-2,5-dihydroxybenzoic acid]: the pIC50 was 4.44 in assay [1]; less than 4.00 in assay [2] (setting [4]); 4.00 in assay [2] (setting [5]); 4.79 in assay [3] (setting [6]); 4.79 in assay [3] (setting [7]).

For `O=C(O)c1cc(O)c(C(=O)Nc2ccccc2C(=O)O)cc1O` [Ia-001a, 4-(2-carboxyphenylaminocarbonyl)-2,5-dihydroxybenzoic acid], the negative-log IC50 (pIC50) in assay [1] is 4.39; in assay [2] (setting [4]), less than 4.00; in assay [2] (setting [5]) it was 4.00; in assay [3] (setting [6]), less than 4.00; in assay [3] (setting [7]), 4.00.

With `O=C(O)Cc1cc(O)c(C(=O)Nc2ccccc2-c2nnn[nH]2)cc1O` [IIIa-001aTz], the pIC50 is 4.29 in assay [1]; less than 4.00 in assay [2] (setting [4]); 4.00 in assay [2] (setting [5]); 5.11 in assay [3] (setting [6]); 5.11 in assay [3] (setting [7]).

Regarding `O=C(O)c1cc(NC(=O)c2cc(O)c(C(=O)Nc3ccc(O)c(C(=O)O)c3)cc2O)ccc1O` [Ic-007a, 5-(4-(3-carboxy-4-hydroxyphenylaminocarbonyl)-2,5-dihydroxybenzamido)-2-hydroxy benzoic acid], the pIC50 in assay [1] was 4.89; in assay [2] (setting [4]) it was less than 4.00; in assay [2] (setting [5]) it was 4.00; in assay [3] (setting [6]), 4.90; in assay [3] (setting [7]), 4.90.

As to `O=C(O)c1ccccc1CNC(=O)c1cc(O)cc(C(=O)O)c1O` [IIa-053a, 3-(2-Carboxyphenylmethylaminocarbonyl)-2,5-dihydroxybenzoic acid], the pIC50 was 4.08 in assay [1]; less than 4.00 in assay [2] (setting [4]); 4.00 in assay [2] (setting [5]); less than 4.00 in assay [3] (setting [6]); 4.00 in assay [3] (setting [7]).

Consider `COC(=O)c1cc(OC(C)=O)cc(CS(=O)(=O)Cc2cc(OC(C)=O)cc(C(=O)OC)c2OC(C)=O)c1OC(C)=O` [IVc-059a-E2-A4], for which the pIC50 is 4.27 in assay [1]; less than 4.00 in assay [2] (setting [4]); 4.00 in assay [2] (setting [5]); 4.77 in assay [3] (setting [6]); 4.77 in assay [3] (setting [7]).

As for `O=C(O)c1cc(NC(=O)c2cc(O)cc(C(=O)Nc3ccc(O)c(C(=O)O)c3)c2O)ccc1O` [IIc-007a, 5-(3-(3-carboxy-4-hydroxyphenylaminocarbonyl)-2,5-dihydroxybenzamido)-2-hydroxy benzoic acid], the pIC50 was 4.96 in assay [1]; less than 4.00 in assay [2] (setting [4]); 4.00 in assay [2] (setting [5]); 4.75 in assay [3] (setting [6]); 4.75 in assay [3] (setting [7]).

Turning to `O=C(O)c1cc(O)c(CN(Cc2cc(O)c(C(=O)O)cc2O)Cc2cc(O)c(C(=O)O)cc2O)cc1O` [IIIc-061a, Tris(4-carboxy-2,5-dihydroxyphenylmethyl)amine], the pIC50 in assay [2] (setting [4]) is less than 4.00; in assay [2] (setting [5]), 4.00; in assay [3] (setting [6]), 4.75; in assay [3] (setting [7]) it was 4.75.

Consider `O=C(O)c1cc(O)c(C(=O)Nc2ccc(-c3nnn[nH]3)cc2)cc1O` [Ia-003a-Tz, 4-(4-(1H-tetrazol-5-yl)phenyl-aminocarbonyl)-2,5-dihydroxybenzoic acid], for which the pIC50 in assay [1] was 5.17; in assay [2] (setting [4]), less than 4.00; in assay [2] (setting [5]) it was 4.00; in assay [3] (setting [6]), 5.16; in assay [3] (setting [7]), 5.16.

`O=C(O)c1cc(O)c(C(=O)Nc2ccccc2-c2nnn[nH]2)cc1O` [Ia-001a-Tz, 4-(2-(1H-tetrazol-5-yl)phenyl-aminocarbonyl)-2,5-dihydroxybenzoic acid]: the pIC50 in assay [1] is 5.21; in assay [2] (setting [4]), less than 4.00; in assay [2] (setting [5]), 4.00; in assay [3] (setting [6]) it was 4.58; in assay [3] (setting [7]) it was 4.58.

Take `O=C(O)c1cc(NC(=O)c2cc(O)c(C(=O)Nc3ccccc3-c3nnn[nH]3)cc2O)ccc1O` [Ic-001a-Tz/004a, 5-(4-(2-(1H-tetrazol-5-yl)phenylaminocarbonyl)-2,5-dihydroxybenzamido)-2-hydroxy benzoic acid]: the pIC50 is 4.72 in assay [1]; less than 4.00 in assay [2] (Homo sapiens, 18 h, read-out: Whole Blood: IL-4 IC50); 4.00 in assay [2] (Homo sapiens, read-out: IC50 IL-4); 4.71 in assay [3] (Homo sapiens, 18 h, read-out: Whole Blood: IL-10 IC50); 4.71 in assay [3] (Homo sapiens, read-out: IC50 IL-10).

As for `O=C(O)c1cc(O)c(C(=O)Nc2ccccc2S(=O)(=O)O)cc1O` [Ia-001c, 2,5-dihydroxy-4-(2-sulfophenylaminocarbonyl)benzoic acid], the pIC50 in assay [1] is 4.68; in assay [2] (setting [4]), less than 4.00; in assay [2] (setting [5]), 4.00; in assay [3] (setting [6]), 5.72; in assay [3] (setting [7]) it was 5.72.

Regarding `O=C(O)c1cc(O)cc(CS(=O)(=O)Cc2cc(O)cc(C(=O)O)c2O)c1O` [IVc-059a, 3-((2,5-Dihydroxy-3-carboxyphenyl)methylsulfonylmethyl)-2,5-dihydroxybenzoic acid], the pIC50 is 5.17 in assay [1]; less than 4.00 in assay [2] (setting [4]); 4.00 in assay [2] (setting [5]); 5.88 in assay [3] (setting [6]); 5.88 in assay [3] (setting [7]).

With `O=C(O)c1cc(O)ccc1NC(=O)c1cc(O)cc(C(=O)Nc2ccc(O)cc2C(=O)O)c1O` [IIc-009a, 2-(3-(2-carboxy-4-hydroxyphenylaminocarbonyl)-2,5-dihydroxybenzamido)-5-hydroxyl benzoic acid], the pIC50 in assay [1] was 4.52; in assay [2] (setting [4]) it was less than 4.00; in assay [2] (setting [5]), 4.00; in assay [3] (setting [6]), 4.95; in assay [3] (setting [7]) it was 4.95.

In the case of `O=C(O)Cc1cc(O)c(C(=O)Nc2c(C(=O)O)cccc2C(=O)O)cc1O` [IIIa-013a, 2-(4-(carboxymethyl)-2,5-dihydroxybenzamido)isophthalic acid], the pIC50 in assay [1] is 4.77; in assay [2] (setting [4]), less than 4.00; in assay [2] (setting [5]) it was 4.00; in assay [3] (setting [6]), 4.43; in assay [3] (setting [7]), 4.43.

In the case of `CCOC(=O)c1cc(NC(=O)c2cc(O)c(C(=O)OCC)cc2O)cc(NC(=O)c2cc(O)c(C(=O)OCC)cc2O)c1` [Ib-010a-E3, ethyl 3,5-bis(2,5-dihydroxy-4-ethoxycarbonylbenzoylamino)benzoate], the pIC50 in assay [1] is 4.59; in assay [2] (setting [4]) it was less than 4.00; in assay [2] (setting [5]), 4.00; in assay [3] (setting [6]) it was less than 4.00; in assay [3] (setting [7]) it was 4.00.
